Like-named read-outs stand apart in the source and are kept apart here.
Biological target: T1, CCR2 receptor (Homo sapiens, UniProt P41597)
T1 construct: expressed in transfected cells
Experiment: compound-induced calcium activity on FLIPR Tetra in HEK-Gqi5 cells stably expressing CCR2
Type: cell-based
Experimental: HEK-Gqi5 cells stably expressing CCR2 were cultured in (DMEM high glucose, 10% FBS, 1% PSA, 400 μg/ml geneticin and 50 μg/ml hygromycin. Appropriate positive control chemokines (MCP-1, MIP1A or RANTES) was used as the positive control agonist for screening compound-induced calcium activity assayed on the FLIPR^Tetra. The drug plates were prepared in 384-well microplates using the EP3 and the MultiPROBE robotic liquid handling systems. Compounds were synthesized and tested for CCR2 activity.

[1] = CCR2 receptor, HEK-Gqi5 cells stably expressing CCR2, calcium FLIPR Tetra
[2] = CCR2 receptor, HEK-Gqi5 cells stably expressing CCR2, calcium FLIPR Tetra, read-out: IC50

T1 sequence (P41597 whole entry): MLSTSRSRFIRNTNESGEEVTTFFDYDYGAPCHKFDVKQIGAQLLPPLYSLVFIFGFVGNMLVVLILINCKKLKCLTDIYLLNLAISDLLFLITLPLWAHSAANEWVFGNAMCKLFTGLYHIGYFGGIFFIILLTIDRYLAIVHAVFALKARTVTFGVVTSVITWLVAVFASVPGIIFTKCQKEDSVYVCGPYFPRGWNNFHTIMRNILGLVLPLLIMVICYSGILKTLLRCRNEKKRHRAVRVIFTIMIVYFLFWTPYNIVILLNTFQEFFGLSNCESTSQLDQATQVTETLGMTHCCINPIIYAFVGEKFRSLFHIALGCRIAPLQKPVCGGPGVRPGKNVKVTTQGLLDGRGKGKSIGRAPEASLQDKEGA

SMILES | % ANTAGONISM [1] | IC50 [2] | IC50
O=S(=O)(Nc1cc(Cl)cnc1SCc1ccccc1)c1cc2ccccc2o1 [Compound 1, N-[2-(benzylthio)-5-chloropyridin-3-yl]-1-benzofuran-2-sulfonamide] | 83% | 252 nM | 
O=S(=O)(Nc1cc(Cl)cnc1[S+]([O-])Cc1ccccc1)c1cc2ccccc2o1 (stereo not drawn) [Compound 2, N-[2-(benzylsulfinyl)-5-chloropyridin-3-yl]-1-benzofuran-2-sulfonamide] | 94% | 31 nM | 
O=S(=O)(Cc1ccccc1)c1ncc(Cl)cc1NS(=O)(=O)c1cc2ccccc2o1 [Compound 3, N-[2-(benzylsulfonyl)-5-chloropyridin-3-yl]-1-benzofuran-2-sulfonamide] | 90% | 19 nM | 
O=S(=O)(Nc1cc(Cl)cnc1SCc1cccnc1)c1cc2ccccc2o1 [Compound 4, N-{5-chloro-2-[(pyridin-3-ylmethyl)thio]pyridin-3-yl}-1-benzofuran-2-sulfonamide] | 95% | 32 nM | 
O=S(=O)(Nc1cc(Cl)cnc1[S+]([O-])Cc1cccnc1)c1cc2ccccc2o1 (stereo not drawn) [Compound 5, N-{5-chloro-2-[(pyridin-3-ylmethyl)sulfinyl]pyridin-3-yl}-1-benzofuran-2-sulfonamide] | 99% | 201 nM | 
O=S(=O)(Cc1cccnc1)c1ncc(Cl)cc1NS(=O)(=O)c1cc2ccccc2o1 [Compound 6, N-{5-chloro-2-[(pyridin-3-ylmethyl)sulfonyl]pyridin-3-yl}-1-benzofuran-2-sulfonamide] | 84% | 2140 nM | 
O=S(=O)(Cc1ccc[n+]([O-])c1)c1ncc(Cl)cc1NS(=O)(=O)c1cc2ccccc2o1 [Compound 7, N-(5-chloro-2-{[(1-oxidopyridin-3-yl)methyl]sulfonyl}pyridin-3-yl)-1-benzofuran-2-sulfonamide] | 100% | 130 nM | 
O=S(=O)(Nc1cccnc1SCc1ccccc1)c1cc2ccccc2o1 [Compound 8, N-[2-(benzylthio)pyridin-3-yl]-1-benzofuran-2-sulfonamide] | 80% | 3010 nM | 
O=S(=O)(Nc1cccnc1[S+]([O-])Cc1ccccc1)c1cc2ccccc2o1 (stereo not drawn) [Compound 9, N-[2-(benzylsulfinyl)pyridin-3-yl]-1-benzofuran-2-sulfonamide] | 100% | 27 nM | 
O=S(=O)(Cc1ccccc1)c1ncccc1NS(=O)(=O)c1cc2ccccc2o1 [Compound 10, N-[2-(benzylsulfonyl)pyridin-3-yl]-1-benzofuran-2-sulfonamide] | 95% | 16 nM | 
Nc1cccc(CSc2ncccc2NS(=O)(=O)c2cc3ccccc3o2)c1 [Compound 11, N-{2-[(3-aminobenzyl)sulfanyl]pyridin-3-yl}-1-benzofuran-2-sulfonamide] | 99% | 102 nM | 
Nc1cccc(C[S+]([O-])c2ncccc2NS(=O)(=O)c2cc3ccccc3o2)c1 (stereo not drawn) [Compound 12, N-{2-[(3-aminobenzyl)sulfinyl]pyridin-3-yl}-1-benzofuran-2-sulfonamide] | 100% | 255 nM | 
CC(C)(C)OC(=O)Nc1cccc(CS(=O)(=O)c2ncccc2NS(=O)(=O)c2cc3ccccc3o2)c1 [Compound 13, tert-butyl {3-[({3-[(1-benzofuran-2-ylsulfonyl)amino]pyridin-2-yl}sulfonyl)methyl]phenyl}carbamate] | 102% | 497 nM | 
Nc1cccc(CS(=O)(=O)c2ncccc2NS(=O)(=O)c2cc3ccccc3o2)c1 [Compound 14, N-{2-[(3-aminobenzyl)sulfonyl]pyridin-3-yl}-1-benzofuran-2-sulfonamide] | 102% | 71 nM | 
O=S(=O)(Nc1cc(F)cnc1SCc1ccccc1)c1cc2ccccc2o1 [Compound 15, N-[2-(benzylsulfanyl)-5-fluoropyridin-3-yl]-1-benzofuran-2-sulfonamide] | 94% | 125 nM | 
O=S(=O)(Nc1cc(F)cnc1[S+]([O-])Cc1ccccc1)c1cc2ccccc2o1 (stereo not drawn) [Compound 16, N-[2-(benzylsulfinyl)-5-fluoropyridin-3-yl]-1-benzofuran-2-sulfonamide] | 95% | 18 nM | 
O=S(=O)(Cc1ccccc1)c1ncc(F)cc1NS(=O)(=O)c1cc2ccccc2o1 [Compound 17, N-[2-(benzylsulfonyl)-5-fluoropyridin-3-yl]-1-benzofuran-2-sulfonamide] | 101% | 43 nM | 
Nc1cccc(CSc2ncc(Cl)cc2NS(=O)(=O)c2cc3ccccc3o2)c1 [Compound 18, Benzofuran-2-sulfonic acid [2-(3-amino-benzylsulfanyl)-5-chloro-pyridin-3-yl]-amide] | 98% | 95 nM | 
Nc1cccc(C[S+]([O-])c2ncc(Cl)cc2NS(=O)(=O)c2cc3ccccc3o2)c1 (stereo not drawn) [Compound 19, N-{2-[(3-aminobenzyl)sulfinyl]-5-chloropyridin-3-yl}-1-benzofuran-2-sulfonamide] | 97% | 101 nM | 
Nc1cccc(CS(=O)(=O)c2ncc(Cl)cc2NS(=O)(=O)c2cc3ccccc3o2)c1 [Compound 20, N-(2-((3-aminobenzyl)sulfonyl)-5-chloropyridin-3-yl)benzofuran-2-sulfonamide] | 100% | 142 nM | 
Cc1cnc(SCc2ccccc2)c(NS(=O)(=O)c2cc3ccccc3o2)c1 [Compound 21, N-[2-(benzylsulfanyl)-5-methylpyridin-3-yl]-1-benzofuran-2-sulfonamide] | 80% | 194 nM | 
Cc1cnc([S+]([O-])Cc2ccccc2)c(NS(=O)(=O)c2cc3ccccc3o2)c1 (stereo not drawn) [Compound 22, N-[2-(benzylsulfinyl)-5-methylpyridin-3-yl]-1-benzofuran-2-sulfonamide] | 103% | 25 nM | 
Cc1cnc(S(=O)(=O)Cc2ccccc2)c(NS(=O)(=O)c2cc3ccccc3o2)c1 [Compound 23, N-[2-(benzylsulfonyl)-5-methylpyridin-3-yl]-1-benzofuran-2-sulfonamide] | 96% | 12 nM | 
Cc1ncccc1Oc1ncc(Cl)cc1NS(=O)(=O)c1cc2ccccc2o1 [Compound 24, N-{5-chloro-2-[(2-methylpyridin-3-yl)oxy]pyridin-3-yl}-1-benzofuran-2-sulfonamide] | 90% | 34 nM | 
COC(=O)c1ccccc1Oc1ncc(Cl)cc1NS(=O)(=O)c1cc2ccccc2o1 [Compound 25, methyl 2-({3-[(1-benzofuran-2-ylsulfonyl)amino]-5-chloropyridin-2-yl}oxy)benzoate] | 93% | 215 nM | 
O=C(O)c1ccccc1Oc1ncc(Cl)cc1NS(=O)(=O)c1cc2ccccc2o1 [Compound 26, 2-({3-[(1-benzofuran-2-ylsulfonyl)amino]-5-chloropyridin-2-yl}oxy)benzoic acid] | 97% | 157 nM | 
O=C1CCN(C(=O)c2ncc(Cl)cc2NS(=O)(=O)c2cc3ccccc3o2)CC1 [Compound 28, N-{5-chloro-2-[(4-oxopiperidin-1-yl)carbonyl]pyridin-3-yl}-1-benzofuran-2-sulfonamide] | 105% |  | 24 nM

Source: patent US8815915B2, “Benzofuran-2-sulfonamides pyridine derivatives as chemokine receptor modulators” (Allergan, Inc., priority 2012, dated 2014)
